Legend:
Experiment in all cases: Test C rice paddy
[1] = tested on: WATER PLAINTAIN; type: in vivo, Alisma trivale; conditions: 504 h, 21 days, read-out: plant response
Text: (§1) Sixteen cm diameter Airlite plastic pots were partially filled with Tama slit loam soil and the soil saturated with water. Japonica and Indica rice seedlings a the 2.0 to 2.5 leaf stage were transplanted into 1/3 of the pots. Into another third of the pots were transplanted seedling or sprouted tubers of water plantain (Alisma trivale), Scripus (Scirpus paludosus), Cyperus (Cyperus esculentus), and arrowhead (Sagittaria spp.). The remaining pots were planted with barnyardgrass (Echinochloa crusgalli) seeds and sprouted tubes of water chestnut (Eleocharis spp.). These weeds all represent major rice weeds or genera of weeds important in rice. Three to four days after planting, the water level was raised to 3 cm (about 1200 ml/pot) and maintained a this level throughout the test. Chemical treatments were applied directly to the paddy water, within 24 hours of raising the water, after being formulated in a nonphytotoxic solvent. The pots were maintained in the greenhouse.

[2] = tested on: ARROWHEAD; type: in vivo, Sagittaria spp.; conditions: Sagittaria, 504 h, 21 days, read-out: plant response
Text: as §1

[3] = tested on: RICE JAP EFF; type: in vivo, Japonica rice; conditions: Oryza sativa, 504 h, 21 days, read-out: plant response
Text: as §1

[4] = tested on: WATERCHESTNUT; type: in vivo, Eleocharis spp.; conditions: Eleocharis, 504 h, 21 days, read-out: plant response
Text: as §1

[5] = tested on: SCIRPUS; type: in vivo, Scirpus paludosus; conditions: Bolboschoenus maritimus, 504 h, 21 days, read-out: plant response
Text: as §1

[6] = tested on: RICE INDICA EFF; type: in vivo; conditions: Oryza sativa, 504 h, 21 days, read-out: plant response
Text: as §1

[7] = tested on: BARNYARDGRASS; type: in vivo, Echinochloa crusgalli; conditions: Echinochloa crus-galli, 504 h, 21 days, read-out: plant response
Text: as §1

Compound: C=C(c1cccc(F)c1)C(O)(Cn1cncn1)c1ccc(F)cc1F (centres unmarked) [Example 18]
- pest or weed control at 64 g/ha ([1]; 0064 G/HA): 0%
- pest or weed control at 125 g/ha ([1]; 0125 G/HA): 0%
- pest or weed control at 250 g/ha ([1]; 0250 G/HA): 0%
- pest or weed control at 500 g/ha ([1]; 0500 G/HA): 20%
- pest or weed control at 1000 g/ha ([1]; 1000 G/HA): 40%
- pest or weed control at 64 g/ha ([2]; 0064 G/HA): 0%
- pest or weed control at 125 g/ha ([2]; 0125 G/HA): 0%
- pest or weed control at 250 g/ha ([2]; 0250 G/HA): 0%
- pest or weed control at 500 g/ha ([2]; 0500 G/HA): 20%
- pest or weed control at 1000 g/ha ([2]; 1000 G/HA): 35%
- pest or weed control at 64 g/ha ([3]; 0064 G/HA): 0%
- pest or weed control at 125 g/ha ([3]; 0125 G/HA): 0%
- pest or weed control at 250 g/ha ([3]; 0250 G/HA): 0%
- pest or weed control at 500 g/ha ([3]; 0500 G/HA): 50%
- pest or weed control at 1000 g/ha ([3]; 1000 G/HA): 70%
- pest or weed control at 64 g/ha ([4]; 0064 G/HA): 0%
- pest or weed control at 125 g/ha ([4]; 0125 G/HA): 0%
- pest or weed control at 250 g/ha ([4]; 0250 G/HA): 0%
- pest or weed control at 500 g/ha ([4]; 0500 G/HA): 40%
- pest or weed control at 1000 g/ha ([4]; 1000 G/HA): 50%
- pest or weed control at 64 g/ha ([5]; 0064 G/HA): 0%
- pest or weed control at 125 g/ha ([5]; 0125 G/HA): 0%
- pest or weed control at 250 g/ha ([5]; 0250 G/HA): 0%
- pest or weed control at 500 g/ha ([5]; 0500 G/HA): 0%
- pest or weed control at 1000 g/ha ([5]; 1000 G/HA): 0%
- pest or weed control at 64 g/ha ([6]; 0064 G/HA): 0%
- pest or weed control at 125 g/ha ([6]; 0125 G/HA): 0%
- pest or weed control at 250 g/ha ([6]; 0250 G/HA): 0%
- pest or weed control at 500 g/ha ([6]; 0500 G/HA): 30%
- pest or weed control at 1000 g/ha ([6]; 1000 G/HA): 50%
- pest or weed control at 64 g/ha ([7]; 0064 G/HA): 0%
- pest or weed control at 125 g/ha ([7]; 0125 G/HA): 0%
- pest or weed control at 250 g/ha ([7]; 0250 G/HA): 0%
- pest or weed control at 500 g/ha ([7]; 0500 G/HA): 40%
- pest or weed control at 1000 g/ha ([7]; 1000 G/HA): 60%

— US4965280A, “Antifungal carbinols” (E. I. Du Pont de Nemours and Company, priority 1989, dated 1990)
